The values that follow come from patent US9790169B2, “IDO inhibitors” (BRISTOL-MYERS SQUIBB COMPANY, priority 2015, dated 2017).

The term IC50 denotes the concentration needed to halve the response being measured. Read a low IC50 as inhibition by little substance.

The assay addresses human IDO1 (Homo sapiens, UniProt P14902). Kind of assay: Assessment of human IDO-1 inhibitory activity in Hela cells (Interferon-gamma stimulated HeLa cells, Ehrlich reagent, absorbance 490 nm). Format: cell-based. The settings on record: Hela Human IDO-1 cellular assay. Also noted: endogenous in cells; host or cells: HeLa cells stimulated with interferon-gamma. The gist of the method:
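IDO activity induced by 18 h IFN-γ (human 10 ng/ml or murine 5 ng/ml, final) after 1 h compound pre-treatment of HeLa cells at 37 °C. Supernatant kynurenine detected via Ehrlich reagent absorbance at 490 nm following 3% TCA at 50 °C; IC50 set against no-IFN-γ and untreated-stimulated controls.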

Chain of human IDO1 (P14902 whole entry): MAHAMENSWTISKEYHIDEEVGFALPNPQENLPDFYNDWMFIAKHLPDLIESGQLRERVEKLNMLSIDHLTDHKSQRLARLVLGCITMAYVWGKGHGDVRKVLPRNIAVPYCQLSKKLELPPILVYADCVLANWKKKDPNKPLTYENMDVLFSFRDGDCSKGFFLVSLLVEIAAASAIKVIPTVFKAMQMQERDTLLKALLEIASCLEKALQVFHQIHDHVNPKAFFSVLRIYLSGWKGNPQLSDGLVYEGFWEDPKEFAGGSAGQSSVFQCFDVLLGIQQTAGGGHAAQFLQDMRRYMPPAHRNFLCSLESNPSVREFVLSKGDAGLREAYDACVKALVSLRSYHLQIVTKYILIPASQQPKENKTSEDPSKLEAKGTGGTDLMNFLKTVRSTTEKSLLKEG

`COCCN(c1ccc(C(C)(C)CC(=O)O)cc1NC(=O)Nc1ccc(Cl)cc1F)C1CCOCC1` [Example 20, 3-(3-(3-(4-chloro-2-fluorophenyl)ureido)-4-((2-methoxyethyl)(tetrahydro-2H-pyran-4-yl)amino)phenyl)-3-methylbutanoic acid]: the IC50 was under 50 nM. Under `CCCN(c1ccc(C(C)(C)CC(=O)O)cc1Nc1ccc(Cl)cc1)C1CCOCC1` [Example 21, 3-(3-((4-Chlorophenyl)amino)-4-(propyl(tetrahydro-2H-pyran-4-yl)amino)phenyl)-3-methylbutanoic acid] stands under 5 nM; under `CCCN(c1ccc(C(C)(C)CC(=O)O)cc1Nc1ccc(C#N)cc1)C1CCOCC1` [Example 22, 3-(3-((4-cyanophenyl)amino)-4-(propyl(tetrahydro-2H-pyran-4-yl)amino)phenyl)-3-methylbutanoic acid], under 5 nM; under `CCCN(c1ccc(C(C)(C)CC(=O)O)cc1Nc1cnc(OC)nc1)C1CCOCC1` [Example 23, 3-(3-((2-methoxypyrimidin-5-yl)amino)-4-(propyl(tetrahydro-2H-pyran-4-yl)amino)phenyl)-3-methylbutanoic acid], under 50 nM. Under `CCCN(c1ccc(C(C)(C)CC(=O)O)cc1Nc1cnc(OCC)nc1)C1CCOCC1` [Example 24, 3-(3-((2-ethoxypyrimidin-5-yl)amino)-4-(propyl(tetrahydro-2H-pyran-4-yl)amino)phenyl)-3-methylbutanoic acid] stands under 50 nM; under `CCCN(c1ccc(C(C)(C)CC(=O)O)cc1NC(=O)Nc1ccc(C)cc1)C1CCOCC1` [Example 25, 3-Methyl-3-(4-(propyl(tetrahydro-2H-pyran-4-yl)amino)-3-(3-(p-tolyl)ureido)phenyl)butanoic acid], under 50 nM; under `CCN(c1ccc(C(CC)(CC)CC(=O)O)cc1Nc1ccc(Cl)cc1)C1CCOCC1` [Example 26, 3-(3-((4-Chlorophenyl)amino)-4-(ethyl(tetrahydro-2H-pyran-4-yl)amino)phenyl)-3-ethylpentanoic acid], under 5 nM. `CCN(c1ccc(C(CC)(CC)CC(=O)O)cc1Nc1ccc(C#N)cc1)C1CCOCC1` [Example 27, 3-(3-((4-cyanophenyl)amino)-4-(ethyl(tetrahydro-2H-pyran-4-yl)amino)phenyl)-3-ethylpentanoic acid] yielded an IC50 of under 5 nM. With `CCN(c1ccc(C(CC)(CC)CC(=O)O)cc1Nc1cnc(OC)nc1)C1CCOCC1` [Example 28, 3-ethyl-3-(4-(ethyl(tetrahydro-2H-pyran-4-yl)amino)-3-((2-methoxypyrimidin-5-yl)amino)phenyl)pentanoic acid], the concentration for half-maximal inhibition (IC50) was under 50 nM.

`CCOc1ncc(Nc2cc(C(CC)(CC)CC(=O)O)ccc2N(CC)C2CCOCC2)cn1` [Example 29, 3-(3-((2-ethoxypyrimidin-5-yl)amino)-4-(ethyl(tetrahydro-2H-pyran-4-yl)amino)phenyl)-3-ethylpentanoic acid]: the IC50 was under 5 nM. The same measure for `CCN(c1ccc(C(CC)(CC)CC(=O)O)cc1NC(=O)Nc1ccc(C)cc1)C1CCOCC1` [Example 30, 3-Ethyl-3-(4-(ethyl(tetrahydro-2H-pyran-4-yl)amino)-3-(3-(p-tolyl)ureido)phenyl)pentanoic acid]: under 50 nM; for `CCN(c1ccc(C(CC)(CC)CC(=O)O)cc1NC(=O)Nc1ccc(C#N)cc1)C1CCOCC1` [Example 31, 3-(3-(3-(4-cyanophenyl)ureido)-4-(ethyl(tetrahydro-2H-pyran-4-yl)amino)phenyl)-3-ethylpentanoic acid]: under 50 nM.

In turn, `CCN(c1ccc(C(CC)(CC)CC(=O)O)cc1NC(=O)Nc1ccc(Cl)cc1F)C1CCOCC1` [Example 32, 3-(3-(3-(4-chloro-2-fluorophenyl)ureido)-4-(ethyl(tetrahydro-2H-pyran-4-yl)amino)phenyl)-3-ethylpentanoic acid] displayed a 50% inhibitory concentration (IC50) of under 5 nM. Under `CC(C)CN(CC(C)C)c1ccc(C(C)(C)CC(=O)O)cc1Nc1ccc(Cl)cc1` [Example 145, 3-(3-((4-Chlorophenyl)amino)-4-(diisobutylamino)phenyl)-3-methylbutanoic acid] stands under 5 nM; under `CCOc1ncc(Nc2cc(C3(CC(=O)O)CCOCC3)ccc2N(CC)C2CCOCC2)cn1` [Example 153, 2-(4-(3-((2-Ethoxypyrimidin-5-yl)amino)-4-(ethyl(tetrahydro-2H-pyran-4-yl)amino)phenyl)tetrahydro-2H-pyran-4-yl)acetic acid], over 50 nM; under `CCN(c1ccc(C2(CC(=O)O)CCOCC2)cc1Nc1ccc(C#N)cc1)C1CCOCC1` [Example 154, 2-(4-(3-((4-cyanophenyl)amino)-4-(ethyl (tetrahydro-2H-pyran-4-yl)amino)phenyl)tetrahydro-2H-pyran-4-yl)acetic acid], under 50 nM. The same measure for `CCN(c1ccc(C2(CC(=O)O)CCOCC2)cc1Nc1ccc(Cl)cc1)C1CCOCC1` [Example 155, 2-(4-(3-((4-chlorophenyl)amino)-4-(ethyl(tetrahydro-2H-pyran-4-yl)amino)phenyl)tetrahydro-2H-pyran-4-yl)acetic acid]: under 5 nM. Under `CCN(c1ccc(C2(CC(=O)O)CCOCC2)cc1Nc1ccc(OC)nc1)C1CCOCC1` [Example 156, 2-(4-(4-(ethyl(tetrahydro-2H-pyran-4-yl)amino)-3-((6-methoxypyridin-3-yl)amino)phenyl)tetrahydro-2H-pyran-4-yl)acetic acid] stands over 50 nM; under `CCN(c1ccc(C2(CC(=O)O)CCOCC2)cc1NC(=O)Nc1ccc(C)cc1)C1CCOCC1` [Example 157, 2-(4-(4-(Ethyl(tetrahydro-2H-pyran-4-yl)amino)-3-(3-(p-tolyl)ureido)phenyl)tetrahydro-2H-pyran-4-yl)acetic acid], over 50 nM.

Consider `CCN(c1ccc(C(C)(C)CC(=O)O)cc1Nc1ccc(C#N)cc1)C1CCS(=O)(=O)CC1` [Example 178, 3-(3-((4-cyanophenyl)amino)-4-((1,1-dioxidotetrahydro-2H-thiopyran-4-yl)(ethyl)amino)phenyl)-3-melhylbutanoic acid], for which the IC50 is under 50 nM. Regarding `CCN(c1ccc(C(C)(C)CC(=O)O)cc1Nc1ccc2c(c1)OC(F)(F)O2)C1CCS(=O)(=O)CC1` [Example 179, 3-(3-((2,2-difluorobenzo[d][1,3]dioxol-5-yl)amino)-4-((1,1-dioxidotetrahydro-2H-thiopyran-4-yl)(ethyl)amino)phenyl)-3-methylbutanoic acid], the half-inhibitory concentration (IC50) was under 5 nM. The same measure for `CCN(c1ccc(C(C)(C)CC(=O)O)cc1Nc1ccc(Cl)cc1)C1CCS(=O)(=O)CC1` [Example 180, 3-(3-((4-chlorophenyl)amino)-4-((1,1-dioxidotetrahydro-2H-thiopyran-4-yl)(ethyl)amino)phenyl)-3-methylbutanoic acid]: under 5 nM. In turn, `CCCN(c1ccc(C(C)(C)CC(=O)O)cc1Nc1ccc(C#N)cc1)C1CCS(=O)(=O)CC1` [Example 187, 3-(3-((4-Cyanophenyl)amino)-4-((1,1-dioxidotetrahydro-2H-thiopyran-4-yl)(propyl)amino)phenyl)-3-methylbutanoic acid] returned a 50% inhibitory concentration (IC50) of under 50 nM. Under `CCCN(c1ccc(C(C)(C)CC(=O)O)cc1Nc1cnc(OCC)nc1)C1CCS(=O)(=O)CC1` [Example 188, 3-(4-((1,1-dioxidotetrahydro-2H-thiopyran-4-yl)(propyl)amino)-3-((2-ethoxypyrimidin-5-yl)amino)phenyl)-3-methylbutanoic acid] stands over 50 nM.

Molecule `CCCN(c1ccc(C(C)(C)CC(=O)O)cc1Nc1cnc(OC)nc1)C1CCS(=O)(=O)CC1` [Example 189, 3-(4-((1,1-dioxidotetrahydro-2H-thiopyran-4-yl)(propyl)amino)-3-((2-methoxypyrimidin-5-yl)amino)phenyl)-3-methylbutanoic acid] registered an IC50 of over 50 nM.

In turn, `CCCN(c1ccc(C(C)(C)CC(=O)O)cc1NC(=O)Nc1ccc(C#N)cc1)C1CCS(=O)(=O)CC1` [Example 190, 3-(3-(3-(4-Cyanophenyl)ureido)-4-((1,1-dioxidotetrahydro-2H-thiopyran-4-yl)(propyl)amino)phenyl)-3-methylbutanoic acid] had a half-maximal inhibitory concentration (IC50) of over 50 nM. Consider `CCN(c1ccc([C@H](COC)CC(=O)O)cc1Nc1ccc(C(F)(F)F)cc1)C1CCOCC1` [Example 401], for which the half-inhibitory concentration (IC50) is under 5 nM. The same measure for `CCOc1ncc(Nc2cc([C@H](CC(=O)O)C(F)(F)F)ccc2N(CC)C2CCOCC2)cn1` [Example 598, (S)-3-(3-((2-Ethoxypyrimidin-5-yl)amino)-4-(ethyl(tetrahydro-2H-pyran-4-yl)amino)phenyl)-4,4,4-trifluorobutanoic acid]: under 50 nM. The same measure for `CCN(c1ccc([C@H](CC(=O)O)C(F)(F)F)cc1Nc1cnc(OC)nc1)C1CCOCC1` [Example 599, (S)-3-(4-(ethyl(tetrahydro-2H-pyran-4-yl)amino)-3-((2-methoxypyrimidin-5-yl)amino)phenyl)-4,4,4-trifluorobutanoic acid]: under 50 nM; for `CCOc1ncc(Nc2cc([C@@H](CC(=O)O)C(F)(F)F)ccc2N(CC)C2CCOCC2)cn1` [Example 600, (R)-3-(3-((2-Ethoxypyrimidin-5-yl)amino)-4-(ethyl(tetrahydro-2H-pyran-4-yl)amino)phenyl)-4,4,4-trifluorobutanoic acid]: under 5 nM; for `CCOc1ncc(Nc2cc([C@H](CC)CNS(=O)(=O)CC)ccc2N(CC)C2CCOCC2)cn1` [Example 1325, (S)-N-(2-(3-((2-Ethoxypyrimidin-5-yl)amino)-4-(ethyl(tetrahydro-2H-pyran-4-yl)amino)phenyl)butyl)ethanesulfonamide]: under 50 nM. As for `CCOc1ncc(Nc2cc([C@H](CC)CNS(=O)(=O)c3c(C)noc3C)ccc2N(CC)C2CCOCC2)cn1` [Example 1328, (S)-N-(2-(3-((2-ethoxypyrimidin-5-yl)amino)-4-(ethyl(tetrahydro-2H-pyran-4-yl)amino)phenyl)butyl)-3,5-dimethylisoxazole-4-sulfonamide], the IC50 was over 50 nM.
